Assay results published in ChEMBL document CHEMBL1150202, “Modified Taxols, 6. Preparation of Water-Soluble Prodrugs of Taxol” (J Nat Prod, 1991).
Converted amounts (≈) assume the structure as drawn.

Legend:
P388 [1] = experiment: In vivo cytotoxicity against mouse P388 cells at 64 mg/kg, ip, scheduled Q01D for 5 days relative to control; type: functional
P388 [2] = experiment: In vivo cytotoxicity against mouse P388 cells at 4 mg/kg, ip, scheduled Q01D for 5 days relative to control; type: functional
[3] = Cytotoxicity against human A549/VP cells; type: functional, cell-based
A549 = experiment: Cytotoxicity against human A549 cells; type: functional, cell-based
HCT-116 = experiment: Cytotoxicity against human HCT116 cells; type: functional, cell-based
[4] = Cytotoxicity against human HCT/VP35 cells; type: functional, cell-based
B16 = experiment: Cytotoxicity against mouse B16 cells grown in PRIM medium; type: functional, cell-based
P388 [5] = experiment: In vivo cytotoxicity against mouse P388 cells at 16 mg/kg, ip, scheduled Q01D for 5 days relative to control; type: functional
P388 [6] = experiment: In vivo cytotoxicity against mouse P388 cells at 8 mg/kg, ip, scheduled Q01D for 5 days relative to control; type: functional
P388 [7] = experiment: In vivo cytotoxicity against mouse P388 cells at 32 mg/kg, ip, scheduled Q01D for 5 days relative to control; type: functional
P388 [8] = experiment: In vivo cytotoxicity against mouse P388 cells at 3 mg/kg, ip, scheduled Q01D for 5 days relative to control; type: functional
P388 [9] = experiment: In vivo cytotoxicity against mouse P388 cells at 24 mg/kg, ip, scheduled Q01D for 5 days relative to control; type: functional
P388 [10] = experiment: In vivo cytotoxicity against mouse P388 cells at 48 mg/kg, ip, scheduled Q01D for 5 days relative to control; type: functional
P388 [11] = experiment: In vivo cytotoxicity against mouse P388 cells at 6 mg/kg, ip, scheduled Q01D for 5 days relative to control; type: functional
P388 [12] = experiment: In vivo cytotoxicity against mouse P388 cells at 12 mg/kg, ip, scheduled Q01D for 5 days relative to control; type: functional
P388 [13] = experiment: In vivo cytotoxicity against mouse P388 cells at 5 mg/kg, ip, scheduled Q01D for 5 days relative to control; type: functional
P388 [14] = experiment: In vivo cytotoxicity against mouse P388 cells at 10 mg/kg, ip, scheduled Q01D for 5 days relative to control; type: functional
P388 [15] = experiment: In vivo cytotoxicity against mouse P388 cells at 20 mg/kg, ip, scheduled Q01D for 5 days relative to control; type: functional
P388 [16] = experiment: In vivo cytotoxicity against mouse P388 cells at 40 mg/kg, ip, scheduled Q01D for 5 days relative to control; type: functional
P388 [17] = experiment: In vivo cytotoxicity against mouse P388 cells at 2.5 mg/kg, ip, scheduled Q01D for 5 days relative to control; type: functional

CC(=O)O[C@H]1C(=O)[C@@]2(C)[C@H]([C@H](OC(=O)c3ccccc3)[C@]3(O)C[C@H](OC(=O)[C@H](OC(=O)CCC(=O)NCCS(=O)(=O)[O-])[C@@H](NC(=O)c4ccccc4)c4ccccc4)C(C)=C1C3(C)C)[C@]1(OC(C)=O)CO[C@@H]1C[C@@H]2O.[Na+]
T/C (P388 [1]): 132%
T/C (P388 [2]): 109%
IC50 [3]: < 0.02 µg/mL
IC50 (A549): 0.09 µg/mL
IC50 (HCT-116): < 0.02 µg/mL
IC50 [4]: 0.03 µg/mL
IC50 (B16): < 0.02 µg/mL
T/C (P388 [5]): 127%
T/C (P388 [6]): 114%
T/C (P388 [7]): 136%

CC(=O)O[C@H]1C(=O)[C@@]2(C)[C@H]([C@H](OC(=O)c3ccccc3)[C@]3(O)C[C@H](OC(=O)[C@H](O)[C@@H](NC(=O)c4ccccc4)c4ccccc4)C(C)=C1C3(C)C)[C@]1(OC(C)=O)CO[C@@H]1C[C@@H]2O [PACLITAXEL]
T/C (P388 [2]): 150%
IC50 [3]: < 0.02 µg/mL
IC50 (A549): 4.79 µg/mL (≈ 5.61 µM)
IC50 (HCT-116): < 0.02 µg/mL
IC50 [4]: < 0.02 µg/mL
IC50 (B16): < 0.02 µg/mL
T/C (P388 [5]): 155%
T/C (P388 [6]): 132%

CC(=O)O[C@H]1C(=O)[C@@]2(C)[C@H]([C@H](OC(=O)c3ccccc3)[C@]3(O)C[C@H](OC(=O)[C@H](OC(=O)CCC(=O)NCCCS(=O)(=O)[O-])[C@@H](NC(=O)c4ccccc4)c4ccccc4)C(C)=C1C3(C)C)[C@]1(OC(C)=O)CO[C@@H]1C[C@@H]2O.[Na+]
IC50 [3]: 0.11 µg/mL
IC50 (A549): 0.19 µg/mL
T/C (P388 [8]): 109%
IC50 (HCT-116): < 0.02 µg/mL
IC50 [4]: 0.04 µg/mL
IC50 (B16): < 0.02 µg/mL
T/C (P388 [9]): 123%
T/C (P388 [10]): 127%
T/C (P388 [11]): 114%
T/C (P388 [12]): 118%

CC(=O)O[C@H]1C(=O)[C@@]2(C)[C@H]([C@H](OC(=O)c3ccccc3)[C@]3(O)C[C@H](OC(=O)[C@H](OC(=O)CCS(=O)(=O)[O-])[C@@H](NC(=O)c4ccccc4)c4ccccc4)C(C)=C1C3(C)C)[C@]1(OC(C)=O)CO[C@@H]1C[C@@H]2O.[Na+]
T/C (P388 [13]): 123%
T/C (P388 [14]): 127%
T/C (P388 [15]): 136%
IC50 [3]: 0.19 µg/mL
IC50 (A549): 0.4 µg/mL
T/C (P388 [16]): 136%
IC50 (HCT-116): < 0.02 µg/mL
IC50 [4]: 0.05 µg/mL
IC50 (B16): 0.02 µg/mL
T/C (P388 [17]): 109%
